Reference: ChEMBL document CHEMBL1287791, “In silico identification and biochemical evaluation of novel inhibitors of NRH:quinone oxidoreductase 2 (NQO2)” (Bioorg Med Chem Lett, 2010)
Activity calls are given as the source filed them. How the calls were made is not given here.

Key:
[1] = biological target: T1, Ribosyldihydronicotinamide dehydrogenase [quinone] (Homo sapiens, UniProt P16083); assay: Inhibition of human recombinant NQO2
T1 sequence (P16083 whole entry): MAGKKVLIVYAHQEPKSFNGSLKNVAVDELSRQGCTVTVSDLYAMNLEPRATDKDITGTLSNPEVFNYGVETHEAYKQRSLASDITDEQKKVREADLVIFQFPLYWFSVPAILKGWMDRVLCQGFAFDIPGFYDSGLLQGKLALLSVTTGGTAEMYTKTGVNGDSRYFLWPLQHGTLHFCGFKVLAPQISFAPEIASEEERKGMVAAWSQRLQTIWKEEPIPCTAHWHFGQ

[2] = biological target: T2, Ribosyldihydronicotinamide dehydrogenase [quinone] (Homo sapiens) (UniProt P16083); assay: Inhibition of human recombinant NQO2 at 100 uM
T2 sequence (whole entry): T1 sequence (P16083 whole entry)

[3] = biological target: NAD(P)H dehydrogenase [quinone] 1 (Homo sapiens, UniProt P15559); assay: Inhibition of human recombinant NQO1
NAD(P)H dehydrogenase [quinone] 1, sequence (P15559 whole entry): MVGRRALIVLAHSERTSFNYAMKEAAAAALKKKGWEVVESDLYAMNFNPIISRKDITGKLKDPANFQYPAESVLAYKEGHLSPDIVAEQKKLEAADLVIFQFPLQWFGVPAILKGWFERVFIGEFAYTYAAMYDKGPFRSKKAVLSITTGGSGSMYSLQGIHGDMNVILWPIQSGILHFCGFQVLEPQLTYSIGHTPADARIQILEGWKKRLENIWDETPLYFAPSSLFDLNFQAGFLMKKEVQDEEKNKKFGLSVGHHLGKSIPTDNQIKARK

IC50 [1] [µM] | inhibition [2] | IC50 [3] [µM] | SMILES
6 | – | – | Cc1nc(-n2nc(-c3ccccc3)cc2-c2ccccc2)sc1C(=O)/C=C/c1ccc([N+](=O)[O-])cc1
– | inactive | – | c1ccc(-c2sc(-c3ccccc3)c3c2C2CCC3C2)cc1
6.5 | – | – | Cc1nc(-n2nc(-c3ccccc3)cc2-c2ccccc2)sc1C(=O)/C=C/c1cccc([N+](=O)[O-])c1
6 | – | 1.1 | c1ccc2sc(-c3c4ccccc4cc4ccc5ccccc5c34)cc2c1
5.3 | – | – | Cc1nc(-n2nc(-c3ccccc3)cc2-c2ccccc2)sc1C(=O)/C=C/c1ccc(Cl)cc1
– | inactive | – | c1ccc(/N=C2\SC(=NNc3ccccc3)S\C2=N/c2ccccc2)cc1
5.8 | – | – | Cc1nc(-n2nc(-c3ccccc3)cc2-c2ccccc2)sc1C(=O)/C=C/c1ccccc1
– | inactive | – | O=C(C(=O)c1cc(-c2ccccc2)nc2ccc3ccccc3c12)c1ccccc1
– | inactive | – | Cc1ccc2c(c1)-c1c3c(nn1-c1ccccc1)-c1ccccc1SC3O2 (stereo not drawn)
– | inactive | – | C#CCN(Cc1ccc2nc(-c3ccccc3)c(Cl)nc2c1)c1cc(OC)c(OC)c(OC)c1
2.9 | inactive | – | c1ccc2c3ccn4ccc5c6ccccc6[nH]c5c4c-3nc2c1
3.8 | – | – | CC(/C=C/C(=O)c1sc(-n2nc(-c3ccccc3)cc2-c2ccccc2)nc1C)=C\c1ccccc1
2 | inactive | – | COc1cc2cc(-c3cc(OC)c(OC)c(OC)c3)c3c(c2cc1OC)CNC3=O
– | inactive | – | CCN(CC)CCNC(=O)c1c2c(nc3ccccc13)CCCC2
– | inactive | – | Clc1ccc2nc3c(c(-c4ccccc4)nn3-c3ccccc3)c(-c3ccccc3)c2c1
20 | – | 40 | COc1ccc(/C(C#N)=C\c2cc(OC)c(OC)c(OC)c2)cc1
9.7 | inactive | – | C(=C\Nc1ccc(-c2ccccc2)cc1)/C=N/c1ccc(-c2ccccc2)cc1
1.4 | inactive | – | N=C(N)c1ccc(/N=N/c2cc(/C=C/c3ccccc3)ccc2O)cc1
– | inactive | – | Cc1ccc(-n2cc(-c3ccc(Cl)cc3)c3c2N=CN2N=C(c4cccs4)NC32)cc1 (stereo not drawn)
– | inactive | – | Fc1ccc2c(c1)SC1Oc3ccccc3-c3c1c-2nn3-c1ccccc1 (stereo not drawn)
3.3 | inactive | – | Oc1cc(O)c2ccccc2c1

IC50 [1] [µM] | inhibition [2] | IC50 [3] [µM] | SMILES
3.9 | – | 3 | Oc1ccccc1C(=NNc1ccccc1)c1ccccc1O
5 | inactive | – | CN(C)c1ccc(/C=c2\c3cc([N+](=O)[O-])ccc3n3c2cc(-c2ccccc2)[n+]3C)cc1
– | inactive | – | C1=c2ccccc2=C2C(=C(c3ccccc3)C(c3ccccc3)=NN2c2ccccc2)S1
2 | inactive | – | CN1CC(c2ccccc2)=CC2=C1C=CC(=N)/C2=N\N
5.5 | inactive | – | Cn1c2ccccc2c2c3ccc[n+](C)c3ccc21
3.2 | – | – | Cc1ccc(/C=C/C(=O)c2sc(-n3nc(-c4ccccc4)cc3-c3ccccc3)nc2C)cc1
– | – | 0.39 | Fc1ccccc1C1CC(c2ccc3ccccc3c2)=Nc2ccccc2S1 (stereo not drawn)
– | inactive | – | Cc1ccc(C(=N)c2ccccc2Cc2cccc3ccccc23)c2ccccc12
– | inactive | – | CN(C)c1ccc(NN=C2SC(=N\c3ccccc3)/C(=N/c3ccccc3)S2)cc1
– | – | 10 | Oc1cc(O)cc(-c2c(O)cc(O)cc2O)c1
– | inactive | – | CC(=O)CCNc1ccc(-c2cc(-c3ccc(N(C)C)cc3)nc3ccc4ccccc4c23)cc1
– | inactive | – | N/N=c1\c2ccccc2c2ccc3c4ccccc4/c(=N\N)c3c12
6 | inactive | – | N=C(N)c1ccc(/N=N/c2c(O)c(C(=O)Nc3ccccc3)cc3ccccc23)cc1
1.8 | inactive | – | C(=C\c1c[nH]c2ccccc12)/c1nccc2ccccc12
– | inactive | – | Oc1ccc2ccccc2c1/N=N/c1ccc(F)cc1
2.7 | inactive | – | COc1cc2cc(-c3cc(OC)c(OC)c(OC)c3)c3c(c2cc1OC)CNC3
6.2 | inactive | – | Cn1cc/c(=N\N=c2/ccn(C)c3ccccc23)c2ccccc21
– | inactive | – | CN(CCc1ccccn1)c1ccc2c(c1)Cc1ccccc1-2
2.1 | inactive | – | Cc1c2ccnc(-c3ccccc3)c2cc2c1[nH]c1ccccc12
1.8 | inactive | – | N=C(N)c1ccc(/N=N/c2cc(/N=N/c3ccccc3)ccc2O)cc1
– | inactive | – | O=[N+]([O-])c1ccc(N/N=C/c2c(Cl)n(-c3ccccc3)c3ccccc23)c([N+](=O)[O-])c1

IC50 [1] [µM] | inhibition [2] | IC50 [3] [µM] | SMILES
7.5 | inactive | – | COc1cc(NC(C)CCCN)c2ncccc2c1 (stereo not drawn) [PRIMAQUINE]
– | inactive | – | Cc1ccc(-c2cn3c(nc4ccccc43)c(-c3ccccc3)n2)cc1
2.7 | inactive | – | CCN1/C(=C/c2ccc3ccccc3[n+]2CC)C=Cc2ccccc21
– | inactive | – | O=C(NCCc1ccccc1)c1ccc2ccccc2n1
1.7 | inactive | – | CN(C)c1ccc(/C=c2\c3ccccc3n3c2cc(-c2ccccc2)[n+]3C)cc1
4.9 | – | – | Cc1nc(-n2nc(-c3ccccc3)cc2-c2ccccc2)sc1C(=O)/C=C/c1ccc(Cl)c(Cl)c1
1.9 | inactive | – | Cc1cc(NCCCCCCNc2cc(C)nc3ccc(N)cc23)c2cc(N)ccc2n1
9.6 | inactive | – | O=[N+]([O-])c1ccc(/C=C/c2cc(-c3ccccc3)nc3ccc4ccccc4c23)cc1
– | inactive | – | Oc1ccc(-c2ccc(O)cc2O)c(O)c1
22 | inactive | – | COc1ccc(/C(Cl)=C(/C=O)c2cc(OC)c(OC)c(OC)c2)cc1OC
– | inactive | – | C(=N\c1ccc(-c2cc(-c3ccccc3)nc3ccc4ccccc4c23)cc1)/c1ccccc1
– | inactive | – | C/C(=N\NC(=O)c1ccncc1)c1sc(-n2nc(-c3ccccc3)cc2-c2ccccc2)nc1C
3.5 | inactive | – | CCN(CC)Cc1cc(Nc2c3ccccc3nc3c4ccccc4n(C)c23)ccc1O
5.1 | inactive | – | c1ccc2c(-c3ccsc3)c3c(ccc4ccccc43)cc2c1
5 | inactive | – | CCn1c2ccccc2c2cc(N)c(/N=N/c3ccc([N+](=O)[O-])cc3)cc21
– | inactive | – | c1ccc2cc(-c3cc(-c4cc(-c5ccc6ccccc6c5)on4)no3)ccc2c1
1.5 | inactive | – | CCN(CC)CCCC(C)Nc1ccnc2cc(Cl)ccc12 (stereo not drawn) [CHLOROQUINE]
– | inactive | – | Clc1ccc(-c2cn3c(nc4ccccc43)c(-c3ccccc3)n2)cc1
– | inactive | – | Clc1ccc(-c2nc3ccc4ccccc4c3c3c2CCCC3)cc1
2.1 | inactive | – | Cc1cc2c(ccc3c2ccc[n+]3C)[nH]1

SMILES | IC50 [1] [µM] | inhibition [2] | IC50 [3] [µM]
COc1cc(/C=C/c2ccc(OC)c(O)c2)cc(OC)c1 | 15 | – | –
O=[N+]([O-])c1ccc(-n2nc3ccc4c(no[n+]4[O-])c3n2)cc1 | – | inactive | –
C(=N\NC1=NCCN1)/c1c2ccccc2c(/C=N/NC2=NCCN2)c2ccccc12 | – | inactive | –
